From US20050059735A1, “Cyclic amino acid derivatives useful as pharmaceutical agents” (priority 2000, published 2005)
Where two headings read alike, the source gives them in different places.

Columns and labels:
[1] = rat, in vivo, po, 5 mg/kg
in vivo = settings: rat, po

O=C(CC1(CNC(=O)c2ccccc2)CCCCC1)OCc1ccccc1 [Example 10, [1-(Benzoylamino-methyl)-cyclohexyl]-acetic acid benzyl ester]
half-life [1]: about 6 hrs

NCC1(CC(=O)O)CCCCC1 [gabapentin, 1-(aminomethyl)-cyclohexylacetic acid]
half-life (in vivo): 1.2 h
